According to patent US9857359B2, “Methods for determining drug efficacy using cereblon-associated proteins” (CELGENE CORPORATION, priority 2012, dated 2018):

Experiments:
[1] = test system: Aiolos; assay: Aiolos expression in drug treated T cells (FIG. 48); format: cell-based, human; conditions: all of the respective cells tested (FIGS. 47, 48)
Procedure: Primary T cells from up to 3 donors were isolated from human leukocytes (Blood Center of New Jersey, East Orange, N.J.) by centrifugation through FICOLL® following the ROSETETTESEP™ protocol (Stem Cell Technologies, Vancouver, Canada). Purified T cells were stimulated with anti-CD3 Antibody (Ebioscience, San Diego, Calif.), drug treated for six hours, harvested and Aiolos and Ikaros protein expression was determined by immunoblot analysis using antibodies against Aiolos (Santa Cruz, Dallas, Tex.) and Ikaros (Millipore, Billerica, Mass.) with our without blocking peptide.

[2] = test system: Aiolos; assay: Aiolos expression in human whole blood by FACS assay; format: cell-based
Procedure: Pre-weighed test compound was dissolved in 100% DMSO to make 100 mM or 10 mM stock concentrations. The compound in 100% DMSO was diluted to 10 mM, 1 mM, 0.1 mM, 0.01 mM, 0.001 mM stock concentrations as appropriate. Compounds were directly added to heparinized human whole blood (1:1000 dilution) for final concentrations of 10 μM, 1 μM, or 0.1 μM as appropriate. Ten (10) ml of whole blood was transferred to a 50 mL conical tube and treated with test compound. The final DMSO concentration was 0.1%. The blood was incubated for 1.5 or 5 hours at 37° C., 5% CO2. After each time point, the blood was lysed/fixed, permeabilized, washed and stained with Aiolos as described below.
BD Lyse/Fix Buffer was diluted 5× with distilled (or deionized) water. The Lyse/Fix buffer was pre-warmed in a 37° C. water bath for 10 minutes before use. The cells were lyzed and fixed immediately by mixing 1 volume of whole blood with 20 volumes of 1× Lyse/Fix buffer (for the 1 mL of blood+compound, add 20 mL of 1× Lyse/Fix buffer) and mixed thoroughly by inverting the tube several times. The cell lyse/fix and blood mixture was incubated in a 37° C. water bath for 10 minutes. Cells were pelleted by centrifugation at 500×g for 5 minutes and removed the supernatant by aspiration. Cells were suspended with 5 mL of cold PBS, and then pelleted by centrifugation at 500×g for 5 minutes, and the supernatant was aspirated off. Two hundred (200) μL of PBS was added to cells. Cells were transferred to polystyrene U-bottom 96-well plates (BD, Cat. No. 353910) for use with the FACSCanto HTS. Cells were washed with 200 μL of cold PBS and spun at 500×g for 5 minutes, and the plate was flicked and gently dapped on a paper towel to remove excess buffer. The cells were resuspended and permeabilized by adding 200 μL of cold BD Perm/Wash Buffer I and incubated on ice for 30 minutes. The cells were pelleted by centrifugation at 500×g for 5 minutes and the buffer removed. The cells were washed once with 200 μL BD perm/wash buffer and repelleted, and the buffer was removed.
The cell pellet was resuspended in 40 μL of BD perm/wash buffer. Twenty (20) μL each of anti-CD3-PE, anti-CD20-APC, and anti-Aiolos Rabbit antibodies, or 20 μL of appropriate isotype controls, or 20 μL of 1:400 of normal Rabbit IgG (control for Aiolos) were added to the cells. The mixture was mixed thoroughly and incubated at room temperature for 45 minutes in the dark. The mixture was centrifuged and washed once with BD perm/wash buffer at 500×g for 5 minutes. The cell pellet was resuspended in 80 μL of BD perm/wash buffer, and 20 μL of secondary Goat Anti-Rabbit IgG AF488 antibody (at 1:400 dilution in Perm/Wash Buffer) was added, and the mixture was incubated at RT for 30 min in the dark. Secondary antibody was not added to the isotype controls. The mixture was washed once with 200 μL BD Stain Buffer and centrifuged at 500×g for 5 minutes, and the pelleted cells were resuspended in 200 μL of staining buffer. The cells were analyzed on the BD FACSCanto using the HTS platform. The cells were analyzed using the standard method. If the cells cannot be read right away, the plates were covered in foil to protect from light and stored at 4° C. for up to 2 days. Data analysis was carried out using FlowJo from Tree Star, Inc. to assess mean fluorescence intensity and percent inhibition of Aiolos in cell population.

[3] = target: Ikaros (Homo sapiens, UniProt Q13422); assay: Ikaros in siCRBN transfected primary CD3+ T cells; format: cell-based; set-up: endogenous in cells; host or cells: U266, DF15 (and other MM lines), primary CD3+ T cells, primary CD19+ B cells; conditions: siCRBN vs siControl, 6/24 hours
Ikaros, sequence (Q13422 whole entry): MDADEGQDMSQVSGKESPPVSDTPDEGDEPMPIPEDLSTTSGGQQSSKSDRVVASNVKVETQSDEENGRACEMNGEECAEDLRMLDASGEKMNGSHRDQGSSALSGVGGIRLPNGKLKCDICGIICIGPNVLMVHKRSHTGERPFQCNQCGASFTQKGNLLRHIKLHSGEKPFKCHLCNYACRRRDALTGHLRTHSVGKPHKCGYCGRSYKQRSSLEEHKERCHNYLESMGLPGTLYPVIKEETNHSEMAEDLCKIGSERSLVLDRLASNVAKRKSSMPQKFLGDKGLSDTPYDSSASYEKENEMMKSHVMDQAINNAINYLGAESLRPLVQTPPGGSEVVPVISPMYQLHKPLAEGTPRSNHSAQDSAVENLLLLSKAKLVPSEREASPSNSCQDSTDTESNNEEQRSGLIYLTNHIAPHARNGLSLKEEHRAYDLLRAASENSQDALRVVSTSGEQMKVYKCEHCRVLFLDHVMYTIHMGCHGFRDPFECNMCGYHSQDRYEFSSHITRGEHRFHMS
Procedure: Primary T cells were isolated from human leukocytes (Blood Center of New Jersey, East Orange, N.J.) by centrifugation through FICOLL® centrifugation medium following the ROSETETTESEP™ protocol (Stem Cell Technologies, Vancouver, Canada). Purified T cells were treated with 1 μg/mL PHA-L (Sigma, St. Louis, Mo.) at 37° C. for 24 hours then transfected with either siCRBN or siAiolos (Invitrogen) (200 nM siRNA/100 μL T buffer/8×10^6 cells/shot×5 shots) using NEON® Transfection System (Invitrogen, Grand Island, N.Y.) with program 2100 voltage+15 width+2 pulse. Low GC content siRNA (Invitrogen, Grand Island, N.Y.) was transfected as negative control. Transfected cells were pooled and cultured in OKT3 (3 μg/mL, eBioscience, San Diego, Calif.) coated 10 cm dish with 20 ml RPMI containing 10% FBS at 37° C. for 24 hours. Cells were collected for measuring CRBN or Aiolos knockdown efficiency by western blot (anti-Aiolos: Santa Cruz, sc-10198, lot.C-0212) and qRT-PCR (Applied Biosystem, gene expression CRBN Hs00372271_ml; IKZF3 ID#:Hs00232635_ml). […] Aiolos and Ikaros protein expression was determined by immunoblot analysis using antibodies against Aiolos (Santa Cruz, Dallas, Tex.) and Ikaros (Millipore, Billerica, Mass.). […] Supernatants were harvested and IL-2 protein detected by ELISA (Thermo Scientific, Lafayette, Colo.). […]

SMILES	Aiolos expression [1]	Aiolos expression in T and B cell populations ([2]; 1.5 hours after the treatment)	Aiolos expression in lymphocytes ([2]; 1.5 hours after the treatment)	Aiolos expression in non-lymphocytes ([2]; 1.5 hours after the treatment)	Aiolos expression in lymphocytes ([2]; 5 hour after the treatment)	Effect in reducing or inhibiting the expression of Ikaros where CRBN is knocked-down [3]
Cc1nc2cccc(N)c2c(=O)n1C1CCC(=O)NC1=O (stereo not drawn) [Compound A, 3-(5-amino-2-methyl-4-oxo-4H-quinazolin-3-yl)-piperidine-2,6-dione]	reduced the expression of Aiolos and Ikaros	inhibitory effect was observed in both T and B cell populations	significantly inhibited the expression of Aiolos	no significant effect was observed	the degree of inhibition was more significant than that observed at 1.5 hours	
O=C1CC[C@H](N2Cc3c(OCc4ccc(CN5CCOCC5)cc4)cccc3C2=O)C(=O)N1 [Compound B, 3-(4-((4-(morpholinomethyl)benzyl)oxy)-1-oxoisoindolin-2-yl)piperidine-2,6-dione]	reduced the expression of Aiolos and Ikaros	inhibitory effect was observed in both T and B cell populations	significantly inhibited the expression of Aiolos	no significant effect was observed	the degree of inhibition was more significant than that observed at 1.5 hours	
Nc1cccc2c1CN(C1CCC(=O)NC1=O)C2=O (stereo not drawn) [lenalidomide]						significantly reduced as compared to the control cells with no CRBN knock-down
Nc1cccc2c1C(=O)N(C1CCC(=O)NC1=O)C2=O (stereo not drawn) [pomalidomide, reference compound]						significantly reduced as compared to the control cells with no CRBN knock-down
